Data from patent publication US20050192349A1, “Isolation of the peroxisome proliferation-activated receptor-gamma (PPARgamma) ligand and methods of use thereof” (Beth Israel Deaconess Medical Center, Inc., priority 2002, published 2005).

What was measured:
[1] = system: PPARγ ligand production in 5B2 cells; assay: Effect of COX and LOX inhibitors on PPARγ ligand production in differentiating 5B2 cells (β-gal activity); format: cell-based, murine; settings: day 2
From the text: To test whether PPARγ ligand production was dependent upon cyclooxygenase (COX) or lipooxygenase (LOX), which would be expected if the ligand were a prostaglandin, the effect of COX and LOX inhibitors on PPARγ ligand production during 3T3-L1 differentiation into adipocytes was examined by measuring the β-gal activity in the stable cell line, 5B2.
5B2 cells were stimulated to differentiation into adipocytes as described above. The media containing the mixture of insulin, DEX and MIX is called d0 media on FIG. 10. In the experimental samples, d0 media contained the indicated COX or LOX inhibitor. The fold induction of β-gal activity of day 2 cells was compared to cells of day 2 stimulated in the absence of hormones (g media).

PPARγ = target: T1, PPARγ (Homo sapiens, UniProt P37231); settings: cited from earlier work
T1 sequence (P37231 1-505): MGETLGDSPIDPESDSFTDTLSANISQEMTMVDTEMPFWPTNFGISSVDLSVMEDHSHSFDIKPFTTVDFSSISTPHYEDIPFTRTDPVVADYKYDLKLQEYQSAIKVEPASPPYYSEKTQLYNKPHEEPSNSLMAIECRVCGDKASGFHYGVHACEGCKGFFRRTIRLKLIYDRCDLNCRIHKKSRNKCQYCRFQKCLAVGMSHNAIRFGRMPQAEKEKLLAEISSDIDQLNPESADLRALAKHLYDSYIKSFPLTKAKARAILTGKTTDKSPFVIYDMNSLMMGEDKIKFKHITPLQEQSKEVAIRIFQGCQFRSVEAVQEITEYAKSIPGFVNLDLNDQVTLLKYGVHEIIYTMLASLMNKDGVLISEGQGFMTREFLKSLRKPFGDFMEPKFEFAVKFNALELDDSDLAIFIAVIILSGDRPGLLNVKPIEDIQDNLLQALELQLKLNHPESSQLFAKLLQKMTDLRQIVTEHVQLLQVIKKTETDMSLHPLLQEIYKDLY

[2] = target: T2, PPARγ-LBD fused to GAL4-DBD (Mus musculus, UniProt P37238); assay: β-gal activity in 3T3-L1 cell lines 5B2 and 5B3 stably transfected with the feedback monitoring system; format: cell-based, murine; design: expressed in transfected cells
T2 sequence (P37238 238-503 limits assumed): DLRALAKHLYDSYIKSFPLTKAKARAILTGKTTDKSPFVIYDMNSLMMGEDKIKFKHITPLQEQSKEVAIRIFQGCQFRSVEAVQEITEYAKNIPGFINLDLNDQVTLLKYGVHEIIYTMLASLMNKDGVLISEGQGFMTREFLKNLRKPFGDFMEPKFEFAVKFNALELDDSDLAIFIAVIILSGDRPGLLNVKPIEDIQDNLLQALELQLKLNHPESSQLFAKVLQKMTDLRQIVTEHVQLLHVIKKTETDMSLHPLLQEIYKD

[3] = target: T2, PPARγ-LBD fused to GAL4-DBD; assay: PPARγ ligand monitoring system (Gal4-PPARγ-LBD / pUH-gal β-gal reporter) in transfected CV-1 cells; settings: 3T3-L1 stimulated 2 days with combinations of Ins, Mix and Dex
Experimental: The effector and reporter constructs were transfected into either CV-1 cells (monkey kidney cells) or 3T3-L1 cells (murine fibroblast cells capable of being differentiated into adipocytes). Cells were grown according to standard protocols for these cells. For example, 3T3-L1 cells were grown and maintained as fibroblasts in DMEM/high glucose, containing 10% calf serum in a 10% CO2 humidified environment at 37° C. The cells were maintained at a subconfluent level so as to not prematurely arrest cell growth and induce differentiation. The cells were typically split 1:5 or 1:3 every 3 to 4 days. Cells were transfected using Lipofectamine™ 2000 Reagent (Life Technologies™, Carlsbad, Calif.) according to the manufacturers instructions. Cells were plated in 24 well dishes for the assay.
The washed cells were lysed with 200 μl lysis buffer (25 mM glycylglycine, 15 mM MgSO4, 4 mM EGTA, 1 mM DTT, 1% Triton) per well. […] The β-gal activity was measured for 10 sec. in a Luminometer (LB9507, EG&G, Bad Wildbad, Germany).
CV-1 cells were transfected as described above with pUH-G4-PPARγ and pUH-gal, with or without nuclear receptor interaction domain NBD1 of SRC-1 fused with VP16 or inactivated VP16. […] The treated, transfected cells were harvested and β-gal activity measured 48 hrs post-transfection.

PPARγ1 = assay: Full-length PPARγ1 / p3DR1-luc luciferase reporter in CV-1 cells stimulated with conditioned media; format: cell-based; settings: CV-1, pCMV-PPARγ and p3DR1-luc, with or without NBD1-VP16; various concentrations
Experimental: CV-1 cells were transfected with an expression vector encoding full-length PPARγ1 (pCMV-PPARγ) and a reporter plasmid p3DR1-1uc. p3DR1-luc contains a triple copy of PPARγ response element, Direct Repeat 1, linked to the luciferase gene. The cells were transfected with the reporter with or without NBD1-VP16 expression vector. The transfected cells were incubated with or without conditioned media in the absence or presence of various concentrations of PD068235. The cells were washed and lysed as described above for the β-gal assay, except that 50 μl of the lysate were mixed with 100 μl assay buffer and measured for 15 sec. in the Luminometer. Assay buffer consisted of 25 mM glycylglycine, 15 mM MgSO4, 4 mM EGTA, 1 mM DTT, 15 mM KH2PO4, 6 mM ATP and 100 μl of a 0.225 mg/ml luciferin stock solution.

3T3-L1 = settings: cited from earlier work
[4] = cited from earlier work; for LDL levels: human, in vivo

CCCCCC(O)c1ccc(OCc2ccc3ccccc3n2)cc1 (single isomer, unassigned) [REV 5901-para-isomer]
effect on β-gal activity produced by stimulated 5B2 cells ([1]; 5 μM in d0 media): no significant effect

CCCCC/C=C/C=C1/C(=O)C=C[C@@H]1C/C=C\CCCC(=O)O [15-deoxyΔ^12,14PG J2]
Kd (PPARγ; read-out: affinity (dissociation constant) of PPARγ for the ligand): 2 to 50 µM

O=c1cc(-c2ccccc2)oc2cc(O)c(O)c(O)c12 [Baicalein]
effect on β-gal activity produced by stimulated 5B2 cells ([1]; 5 μM in d0 media): no significant effect

COc1ccc2c(c1)c(CC(=O)O)c(C)n2C(=O)c1ccc(Cl)cc1 [Indomethacin]
effect on β-gal activity produced by stimulated 5B2 cells ([1]; 10 μM in d0 media): no significant effect

CC(C)c1ccc2c(c1)c(SC(C)(C)C)c(CC(C)(C)C(=O)O)n2Cc1ccc(Cl)cc1 [MK866]
effect on β-gal activity produced by stimulated 5B2 cells ([1]; 5 μM in d0 media): no significant effect

CC(C)Cn1c(=O)n(C)c(=O)c2[nH]cnc21 [Mix, methyl iso-butyl xanthine]
induction of β-gal activity by components of the adipogenic mixture ([2]; 5B2 and 5B3, combinations of Ins, 0.5 mM Mix, Dex, day 2): dependent on the stimulation by Mix | ligand production (β-gal activity) on stimulation with cAMP elevating compounds ([2]; 5B2 cells): induced the ligand production of differentiating pre-adipocytes by increasing the intracellular cAMP | ligand production of 3T3-L1 cells (β-gal activity of CV-1 cells incubated with conditioned media) [3]: dependent on stimulation by Mix

CC(Cc1ccc(O)c(O)c1)C(C)Cc1ccc(O)c(O)c1 (stereo not drawn) [NDGA]
effect on β-gal activity produced by stimulated 5B2 cells ([1]; 10 μM in d0 media): no significant effect

C=CCn1cc([N+](=O)[O-])sc1=NC(=O)C(C)(C)C [PD068235]
inhibition of CM-stimulated PPARγ transcriptional activity (luciferase) (PPARγ1): dose-dependent inhibition of CM-stimulated PPARγ transcriptional activity | 3T3-L1 adipocyte differentiation (3T3-L1): prevent 3T3-L1 adipocyte differentiation

Cc1c(C)c2c(c(C)c1O)CCC(C)(COc1ccc(CC3SC(=O)NC3=O)cc1)O2 (stereo not drawn) [Troglitazone]
LDL levels [4]: associated with a rise in LDL levels | liver toxicity ([4]; patients): liver toxicity in some patients

CCCCC/C=C\C/C=C\CCCCCCCC(=O)O [linoleic acid]
direct binding to PPARγ (PPARγ): bind directly to PPARγ

CN(CCOc1ccc(CC2SC(=O)NC2=O)cc1)c1ccccn1 (stereo not drawn) [rosiglitazone]
LDL levels [4]: associated with a rise in LDL levels
